In paper PMC5614982, “Impact of Gastric H^+/K^+-ATPase rs2733743 on the Intragastric pH-Values of Dexlansoprazole Injection in Chinese Subjects” (Frontiers in Pharmacology, 2017):
Values joined by “and” are separate entries in the source; they are usually repeats but may differ in a detail not shown here. Equal entries are not always repeated. Marks after values point to notes of the source that are not given here.

System: intragastric pH
Assay: 24-h intragastric pH monitoring after single intravenous dexlansoprazole in healthy Chinese subjects
Assay type: in vivo, human
Experimental: Dexlansoprazole injection (30 mg per vial) used in the PK and PD study was manufactured by Nanjing Yoko Pharma Co., Ltd. (Nanjing, China). Subjects received an intravenous infusion of 20 or 30 mg dexlansoprazole injection in sterile saline solution (100 mL/h, 60 min). The study drug was administrated with an infusing pump (SA213, Lifepum, Beijing, China) and given through an intravenous catheter in the antecubital vein opposite to the one from which blood samples were taken.
An ambulatory pH recorder (Orion II, MMS, USA) with a disposable pH catheter (VersaFlex, MMS, USA) was used to monitor intragastric pH. The electrode was placed in water for at least 10 min and then calibrated using standard buffer solutions (pH 1.07 and 7.01) before intubation. Both calibration and intubation processes were conducted under the guidance of MMS Virtual Instructor Program. The catheter, trans nasally placed 10 cm under the lower esophageal sphincter, was identified by a sharp decrease in pH (Wang et al., [2010], [2011]). Subjects were intubated on baseline and the day of dosing at about 7:30 a.m., and the intragastric pH data were recorded continuously for 24 h from 8:00 a.m. Intragastric pH was sampled every second, and the data were stored in a MMS Database program (MMS, USA). The PD parameters including Median (pH), Mean (pH), TpH≥3 (%), TpH≥4 (%), TpH≥6 (%), TpH≥6, and AUC^pH−t were analyzed by the MMS Database program.
Median (pH) and mean (pH) were well-investigated in most studies, and the percentage time of pH ≥ 4 (or pH ≥ 4 holding time ratio) was the benchmark for predicting clinical efficacy of PPIs in treating acid-related diseases (Metz et al., [2009]). Novel parameter TpH≥6 (time to first gastric pH ≥ 6, min) and AUCτ 1-τ 2pH-t (area under pH-time curve from τ1 to τ2, pH·s) were defined to evaluate the velocity and extent of pharmacodynamics with more accuracy. All parameters were calculated and compared according to time periods of 0–24, 0–4, 4–10, 10–14, and 14–24 h post dosing.
The parameter AUCτ 1-τ 2pH-t was calculated as follows:
Where t represented the time duration measured by seconds, AUCτ 1-τ 210-t was the area between the pH line = 10 and the pH-time curve, which was generated by the MMS software.
Baseline-adjusted PD parameters were calculated as follows: for example, ΔAUC^pH−t = AUC^pH−t − AUC^pH−tbaseline, ΔMean (pH) = Mean (pH) − Mean (pH)^baseline, and ΔMedian (pH) = Median (pH) − Median (pH)^baseline.

[1] = 30 mg iv, CYP2C19 EM (n = 11), 0–4 h
[2] = 30 mg iv, CYP2C19 EM (n = 11), 0–24 h
[3] = 30 mg iv, CYP2C19 EM (n = 11), 14–24 h
[4] = 30 mg iv, CYP2C19 EMs, H+/K+-ATPase Het (n = 8), 0–4 h
[5] = 30 mg iv, CYP2C19 EMs, H+/K+-ATPase Het (n = 8), 0–24 h
[6] = 30 mg iv, CYP2C19 EMs, H+/K+-ATPase Het (n = 8), 14–24 h
[7] = 30 mg iv, CYP2C19 EMs, H+/K+-ATPase Hom (n = 7), 0–4 h
[8] = 30 mg iv, CYP2C19 EMs, H+/K+-ATPase Hom (n = 7), 0–24 h
[9] = 30 mg iv, CYP2C19 EMs, H+/K+-ATPase Hom (n = 7), 14–24 h

## Cc1c(OCC(F)(F)F)ccnc1C[S@@+]([O-])c1nc2ccccc2[nH]1 [dexlansoprazole]
20 mg group
  time to first gastric pH ≥ 6 (TpH≥6): 76 (± 29) min and 76 ± 29 min
20 mg iv, 0–4 h
  Mean (pH): 4.3 ± 1.5 pH
  Median (pH): 4.6 ± 2.1 pH
  TpH≥3(%): 57.5 ± 22.1 %
  TpH≥4(%): 46.5 ± 26.3 %
  TpH≥6(%): 33.2 ± 29.4 %
  ΔMean (pH): 2.1 ± 1.1 pH
  ΔMedian (pH): 2.5 ± 1.9 pH
  ΔTpH≥3(%): 47.1 ± 20.6%
  ΔTpH≥4 (%): 39.0 ± 22.3 %
  ΔTpH≥6(%): 27.6 ± 24.2 %
20 mg iv, 0–24 h
  Mean (pH): 4.9 ± 1.2 pH
  Median (pH): 4.9 ± 1.5 pH
  TpH≥3(%): 68.5 ± 20.9 %
  TpH≥4(%): 60.4 ± 22.2 %
  TpH≥6(%): 40.1 ± 21.3 %
  ΔMean (pH): 2.4 ± 1.0 pH
  ΔMedian (pH): 3.1 ± 1.5 pH
  ΔTpH≥3(%): 44.5 ± 19.0 %
  ΔTpH≥4 (%): 45.0 ± 20.7 %
  ΔTpH≥6(%): 33.7 ± 18.8 %
20 mg iv, 4–10 h
  Mean (pH): 6.2 ± 1.4 pH
  Median (pH): 6.3 ± 1.6 pH
  TpH≥3(%): 89.4 ± 23.1%
  TpH≥4(%): 89.0 ± 22.1%
  TpH≥6(%): 64.1 ± 31.0 %
  ΔMean (pH): 3.3 ± 1.4 pH
  ΔMedian (pH): 3.6 ± 1.7 pH
  ΔTpH≥3(%): 51.8 ± 29.6%
  ΔTpH≥4 (%): 65.8 ± 26.9%
  ΔTpH≥6(%): 54.9 ± 32.2 %
20 mg iv, 10–14 h
  Mean (pH): 6.5 ± 1.6 pH
  Median (pH): 6.6 ± 1.6 pH
  TpH≥3(%): 92.7 ± 18.1%
  TpH≥4(%): 88.4 ± 22.7%
  TpH≥6(%): 70.9 ± 35.5%
  ΔMean (pH): 3.3 ± 1.4 pH
  ΔMedian (pH): 3.7 ± 1.5 pH
  ΔTpH≥3(%): 43.8 ± 25.3%
  ΔTpH≥4 (%): 55.5 ± 26.0%
  ΔTpH≥6(%): 63.7 ± 34.3%
20 mg iv, 14–24 h
  Mean (pH): 3.6 ± 1.3 pH
  Median (pH): 3.2 ± 1.4 pH
  TpH≥3(%): 48.7 ± 30.8 %
  TpH≥4(%): 37.6 ± 31.3 %
  TpH≥6(%): 16.3 ± 19.3 %
  ΔMean (pH): 1.6 ± 1.1 pH
  ΔMedian (pH): 1.5 ± 1.3 pH
  ΔTpH≥3(%): 38.8 ± 27.8 %
  ΔTpH≥4 (%): 31.2 ± 28.2 %
  ΔTpH≥6(%): 12.0 ± 14.0 %
30 mg group
  time to first gastric pH ≥ 6 (TpH≥6): 58 (± 25) min and 58 ± 25 min
30 mg iv, 0–4 h
  Mean (pH): 5.5 ± 1.5 pH
  Median (pH): 6.1 ± 2.0 pH
  TpH≥3(%): 72.3 ± 20.8%
  TpH≥4(%): 66.5 ± 23.4%
  TpH≥6(%): 54.6 ± 29.2%
  ΔMean (pH): 3.3 ± 1.1 pH
  ΔMedian (pH): 4.1 ± 1.9 pH
  ΔTpH≥3(%): 57.5 ± 22.2%
  ΔTpH≥4 (%): 56.6 ± 19.6%
  ΔTpH≥6(%): 50.7 ± 26.1%
30 mg iv, 0–24 h
  Mean (pH): 6.1 ± 1.2 pH
  Median (pH): 6.4 ± 1.4 pH
  TpH≥3(%): 85.1 ± 15.7%
  TpH≥4(%): 79.8 ± 19.0%
  TpH≥6(%): 64.2 ± 21.0%
  ΔMean (pH): 3.4 ± 1.1 pH
  ΔMedian (pH): 4.3 ± 1.3 pH
  ΔTpH≥3(%): 58.6 ± 18.5%
  ΔTpH≥4 (%): 62.8 ± 20.3%
  ΔTpH≥6(%): 56.6 ± 18.8%
30 mg iv, 4–10 h
  Mean (pH): 6.9 ± 1.0 pH
  Median (pH): 7.1 ± 0.9 pH
  TpH≥3(%): 96.8 ± 7.6%
  TpH≥4(%): 94.5 ± 11.9%
  TpH≥6(%): 83.2 ± 22.3%
  ΔMean (pH): 4.2 ± 1.2 pH
  ΔMedian (pH): 4.6 ± 1.2 pH
  ΔTpH≥3(%): 60.4 ± 21.3%
  ΔTpH≥4 (%): 75.7 ± 19.2%
  ΔTpH≥6(%): 80.3 ± 22.3%
30 mg iv, 10–14 h
  Mean (pH): 7.2 ± 1.2 pH
  Median (pH): 7.3 ± 1.3 pH
  TpH≥3(%): 96.8 ± 9.5%
  TpH≥4(%): 95.0 ± 12.9%
  TpH≥6(%): 84.5 ± 24.3%
  ΔMean (pH): 4.2 ± 1.5 pH
  ΔMedian (pH): 4.5 ± 1.7 pH
  ΔTpH≥3(%): 54.1 ± 28.5%
  ΔTpH≥4 (%): 70.6 ± 26.4%
  ΔTpH≥6(%): 82.1 ± 23.6%
30 mg iv, 14–24 h
  Mean (pH): 5.5 ± 1.5 pH
  Median (pH): 5.3 ± 1.9 pH
  TpH≥3(%): 78.9 ± 27.7%
  TpH≥4(%): 70.6 ± 31.1%
  TpH≥6(%): 49.2 ± 25.2%
  ΔMean (pH): 2.8 ± 1.4 pH
  ΔMedian (pH): 3.1 ± 1.9 pH
  ΔTpH≥3(%): 60.0 ± 26.0%
  ΔTpH≥4 (%): 54.8 ± 28.3%
  ΔTpH≥6(%): 35.2 ± 25.6%
[1]
  Mean (pH): 5.7 ± 1.6 pH
  Median (pH): 6.2 ± 2.1 pH
  TpH≥3(%): 73.9 ± 21.7%
  TpH≥4(%): 69.3 ± 24.3%
  TpH≥6(%): 58.7 ± 31.9%
  ΔMean (pH): 3.2 ± 1.1 pH
  ΔMedian (pH): 3.9 ± 1.8 pH
  ΔTpH≥3(%): 48.6 ± 24.5%
  ΔTpH≥4 (%): 51.9 ± 17.7%
  ΔTpH≥6(%): 53.0 ± 27.4%
[2]
  Mean (pH): 5.7 ± 1.3 pH
  Median (pH): 5.9 ± 1.7 pH
  TpH≥3(%): 80.0 ± 19.5%
  TpH≥4(%): 73.0 ± 23.2%
  TpH≥6(%): 56.4 ± 24.1%
  ΔMean (pH): 2.8 ± 1.1^c pH
  ΔMedian (pH): 3.7 ± 1.5 pH
  ΔTpH≥3(%): 47.9 ± 20.2^c %
  ΔTpH≥4 (%): 50.4 ± 21.3^c %
  ΔTpH≥6(%): 47.4 ± 19.7^c %
[3]
  Mean (pH): 4.9 ± 1.7 pH
  Median (pH): 4.5 ± 2.0 pH
  TpH≥3(%): 67.5 ± 34.5%
  TpH≥4(%): 56.3 ± 37.2%
  TpH≥6(%): 37.1 ± 25.0^c %
  ΔMean (pH): 2.0 ± 1.2^c pH
  ΔMedian (pH): 2.1 ± 1.8^c pH
  ΔTpH≥3(%): 47.0 ± 27.6^c %
  ΔTpH≥4 (%): 38.6 ± 27.9^c %
  ΔTpH≥6(%): 21.1 ± 18.0^c %
[4]
  Mean (pH): 4.7 ± 2.4 pH
  Median (pH): 4.5 ± 2.8 pH
  TpH≥3(%): 63.7 ± 35.7%
  TpH≥4(%): 56.9 ± 39.3^c %
  TpH≥6(%): 39.4 ± 48.2%
  ΔMean (pH): 2.2 ± 0.8^c pH
  ΔMedian (pH): 1.9 ± 1.0^a^,^c pH
  ΔTpH≥3(%): 36.4 ± 20.1%
  ΔTpH≥4 (%): 35.0 ± 11.7%
  ΔTpH≥6(%): 33.8 ± 39.0%
[5]
  Mean (pH): 5.1 ± 1.7 pH
  Median (pH): 4.9 ± 2.1 pH
  TpH≥3(%): 70.1 ± 26.3%
  TpH≥4(%): 62.9 ± 33.1%
  TpH≥6(%): 48.0 ± 32.5%
  ΔMean (pH): 2.3 ± 0.6^c pH
  ΔMedian (pH): 2.9 ± 1.6 pH
  ΔTpH≥3(%): 40.8 ± 11.1^c %
  ΔTpH≥4 (%): 41.4 ± 17.3^c %
  ΔTpH≥6(%): 37.3 ± 19.1%
[6]
  Mean (pH): 4.1 ± 2.1 pH
  Median (pH): 3.5 ± 2.2 pH
  TpH≥3(%): 53.0 ± 41.0%
  TpH≥4(%): 44.6 ± 48.0%
  TpH≥6(%): 30.2 ± 32.6%
  ΔMean (pH): 1.2 ± 0.4^c pH
  ΔMedian (pH): 0.5 ± 0.5^c pH
  ΔTpH≥3(%): 31.5 ± 13.0^c %
  ΔTpH≥4 (%): 25.1 ± 16.9%
  ΔTpH≥6(%): 11.6 ± 2.9^c %
[7]
  Mean (pH): 6.6 ± 0.5 pH
  Median (pH): 7.8 ± 0.1 pH
  TpH≥3(%): 78.7 ± 10.0%
  TpH≥4(%): 77.1 ± 11.6^b %
  TpH≥6(%): 75.5 ± 12.2%
  ΔMean (pH): 4.3 ± 0.4^b pH
  ΔMedian (pH): 5.9 ± 0.4^b pH
  ΔTpH≥3(%): 62.5 ± 11.6%
  ΔTpH≥4 (%): 67.2 ± 2.4%
  ΔTpH≥6(%): 70.1 ± 4.5%
[8]
  Mean (pH): 6.8 ± 0.2 pH
  Median (pH): 7.5 ± 0.4 pH
  TpH≥3(%): 95.1 ± 1.1%
  TpH≥4(%): 87.9 ± 4.7%
  TpH≥6(%): 73.4 ± 3.7%
  ΔMean (pH): 4.3 ± 0.4^a^,^b pH
  ΔMedian (pH): 5.4 ± 0.3 pH
  ΔTpH≥3(%): 77.4 ± 6.3^a^,^b %
  ΔTpH≥4 (%): 78.0 ± 1.5^a^,^b %
  ΔTpH≥6(%): 68.7 ± 7.9%
[9]
  Mean (pH): 6.2 ± 0.4 pH
  Median (pH): 6.3 ± 1.3 pH
  TpH≥3(%): 96.8 ± 1.2%
  TpH≥4(%): 80.4 ± 6.2%
  TpH≥6(%): 51.5 ± 10.9%
  ΔMean (pH): 3.7 ± 0.5^a^,^b pH
  ΔMedian (pH): 4.2 ± 0.8^b pH
  ΔTpH≥3(%): 83.1 ± 5.9^a^,^b %
  ΔTpH≥4 (%): 72.4 ± 1.5%
  ΔTpH≥6(%): 45.8 ± 17.4^a^,^b %
